Results: patent US20150152070A1, “METHODS OF PEST CONTROL IN SOYBEAN” (Syngenta Participations AG, priority 2012, published 2015)

System: Euschistus heros (Neotropical Brown Stink Bug)
Test: Euschistus heros (Neotropical Brown Stink Bug) contact/feeding activity on sprayed soybean plants
Type: in vivo
Conditions: comparative example, mortality 5 days after infestation
Protocol: Euschistus heros (Neotropical Brown Stink Bug) (Contact/Feeding Activity)
2 week old soybean plants are sprayed in a turn table spray chamber with the diluted spray solutions. After drying, 2 soybean seeds are added and plants are infested with 10 N-2 nymphs of the neotropical brown stink bug Euschistus heros in plastic test boxes. Boxes are incubated in a climate chamber at 25° C. and 60% RH. Evaluation is done 5 days after infestation on mortality.

SMILES	Control/% (application rate 3.0 ppm) [%]	Control/% (application rate 12.5 ppm) [%]	Control/% (application rate 50 ppm) [%]
O=C(NCC(F)(F)F)N1CCc2cc(C3=NOC(c4cc(Cl)cc(Cl)c4)(C(F)(F)F)C3)ccc21 (stereo not drawn) [Reference compound]	0	0	5
O=C(CC(F)(F)F)NC1CCc2cc(C3=NOC(c4cc(Cl)cc(Cl)c4)(C(F)(F)F)C3)ccc21 (stereo not drawn) [Compound of the invention]	75	100	100
